The test system of data set [1] is mycobacteria. The experiment in a line: mycobactericidal / tuberculocidal activity (exposure time). The data set is classed as cell-based.
Data set [2] in a line: stability of glutaraldehyde concentration in solution. In kind it is physicochemical. The following applies: composition buffered to about pH 7.3 to 7.9.
Data set [3] has as its system mycobacteria. The conditions noted are these: 25 C, background statement; cited from earlier work.
For a further data set, the system named is bacterial spores. The conditions noted are these: background statement, cited from earlier work.

Where two headings read alike, the source gives them in different places.

Consider `CCO` [Alcohol], for which the tuberculocidal activity entry in the data set with mycobacteria [1] (alcohol alone, 5% to 20% by volume) is “not tuberculocidal”.
With `O=CCCCC=O` [Glutaraldehyde], the tuberculocidal activity result with mycobacteria [1] (2.0% glutaraldehyde alone, 20° C., exposure time of 10 min) is given as “nor is 2.0% glutaraldehyde tuberculocidal”. The “time glutaraldehyde is stable during use and re-use” value in data set [2] is reported as “about 14 days”. For the same compound, the “time to kill 6 log 10 of mycobacteria” value with mycobacteria [3] is listed as “about 45 min”. Further, the “time to kill bacterial spores” value with bacterial spores (25 C) is “about 10.0 hrs”.
As to `O=Cc1ccccc1C=O` [Ortho-phthaladehyde, ortho-phthalaldehyde], the “time to kill bacterial spores” value with bacterial spores (temperature not given) was “about 32 hrs”.
